# How the values were obtained:
# [1] = tested on: Sprague-Dawley rats with closed head injury; test: Closed Head Injury (CHI) model, severe head injury; conditions: for Effect on ICP / Effect on blood pressure: 0.5 mg/kg/min for 10 min, severe head injury, first 15 minutes, 6 rats; for effect on the lowering of the blood pressure: rat, in vivo
# [2] = molecular target: T1, human histamine H1-receptor (Homo sapiens, UniProt P35367); test: Radioligand binding, histamine H1-receptor, competitive inhibition of [3H]Pyrilamine; conditions: CHO-cells transfected with the human histamine H1-receptor, read-out: H1-antagonist activity (pIC50) (converted)
# T1 construct: expressed in transfected cells; host or cells: CHO cells
# T1 sequence (P35367 whole entry): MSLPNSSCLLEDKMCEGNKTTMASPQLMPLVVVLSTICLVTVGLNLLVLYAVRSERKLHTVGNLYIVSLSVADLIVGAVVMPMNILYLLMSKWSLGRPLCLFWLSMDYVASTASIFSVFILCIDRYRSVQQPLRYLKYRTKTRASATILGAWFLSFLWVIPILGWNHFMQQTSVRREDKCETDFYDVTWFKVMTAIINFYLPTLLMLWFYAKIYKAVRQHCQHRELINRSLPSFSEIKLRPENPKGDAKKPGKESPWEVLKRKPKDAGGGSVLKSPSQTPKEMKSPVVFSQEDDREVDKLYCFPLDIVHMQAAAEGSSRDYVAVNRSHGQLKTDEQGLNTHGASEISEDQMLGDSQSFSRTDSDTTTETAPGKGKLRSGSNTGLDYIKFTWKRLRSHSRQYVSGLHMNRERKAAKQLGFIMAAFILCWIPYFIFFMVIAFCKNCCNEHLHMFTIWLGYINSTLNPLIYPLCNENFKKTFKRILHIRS
# Method: Competitive inhibition of [^3H] […] Incubation was done during 150 min at 22° C.
# [3] = bolus of 1 mg/kg in 1 min, then infusion of 0.5 mg/kg/min for 44 min
compound,measurement,setting,value
"CN(C)CCC(c1ccc(Br)cc1)c1ccccn1 (centres unmarked) [Brompheniramine, reference compound]",Effect on ICP,[1],−
"Cc1nc2sccn2c(=O)c1CCN1CCC(=C(c2ccc(F)cc2)c2ccc(F)cc2)CC1 [Ritanserine, reference compound]",Effect on blood pressure,[1],−
CCn1c2ccccc2n2c(=O)c(CCN3CCC(C4c5ccccc5CCn5c4nc4ccccc45)CC3Cc3ccccc3)c(C)nc12 (centres unmarked) [Compound 12],IC50,[2],0.316 µM
"Cc1nc2n(C)c3ccccc3n2c(=O)c1CCN1CCC(C2c3ccccc3CCn3c2nc2ccccc23)CC1Cc1ccccc1 (single isomer, unassigned) [Compound 46]",IC50,[2],0.126 µM
Cc1nc2n(CCOCCO)c3ccccc3n2c(=O)c1CCN1CCC(C2c3ccccc3CCn3c2nc2ccccc23)CC1Cc1ccccc1 (centres unmarked) [Compound 37],IC50,[2],0.631 µM
"Cc1nc2ccccn2c(=O)c1CCN1CCC(C2c3ccccc3CCn3c2nc2ccccc23)C(C)C1 (single isomer, unassigned) [Compound 89]",IC50,[2],0.794 µM
Cyclodextrine,Effect on ICP,[1],−
"CC(C1=C(CCN(C)C)Cc2ccccc21)c1ccccn1 (centres unmarked) [Dimethindene, reference compound]",Effect on ICP,[1],−
CCOC(=O)Cn1c2ccccc2n2c(=O)c(CCN3CCC(C4c5ccccc5CCn5c4nc4ccccc45)CC3Cc3ccccc3)c(C)nc12 (centres unmarked) [Compound 54],IC50,[2],0.316 µM
"CCOC(=O)N1CCC(=C2c3ccc(Cl)cc3CCc3cccnc32)CC1 [Loratidine, reference compound]",Effect on ICP,[1],−
"CN1CCC(OC(c2ccccc2)c2ccccc2)CC1 [Diphenylpyraline, reference compound]",Effect on ICP,[1],−
Cc1nc2n(C)c3ccccc3n2c(=O)c1CCN1CCC(C2c3ccccc3CCn3c2nc2ccccc23)CC1Cc1ccccc1 (centres unmarked) [Compound 49],IC50,[2],0.316 µM
"Cc1nc2n(C)c3ccccc3n2c(=O)c1CCN1CCC(C2c3ccccc3CCn3c2nc2ccccc23)CC1Cc1ccccc1 (single isomer, unassigned) [Compound 44]",Decision (sequential statistical evaluation),[1]; [3],active
same,Delta %: average change of the relative ICP from baseline over the treatment period,[1]; [3],−14.8%
"CN1CCN(C(c2ccccc2)c2ccc(Cl)cc2)CC1 (centres unmarked) [Chlorcyclizine, reference compound]",Effect on ICP,[1],−
same,Effect on blood pressure,[1],0
same,effect on the lowering of the blood pressure,[1],no or little effect
COCCOCn1c2ccccc2n2c(=O)c(CCN3CCC(C4c5ccccc5CCn5c4nc4ccccc45)CC3Cc3ccccc3)c(C)nc12 (centres unmarked) [Compound 29],IC50,[2],0.501 µM
Cc1nc2n(C)c3ccccc3n2c(=O)c1CCN1CCC(C2c3ccccc3CCn3c2nc2ccccc23)CC1Cc1ccccc1 (centres unmarked) [Compound 55],IC50,[2],0.251 µM
Cc1nc2n(C)c3ccccc3n2c(=O)c1CCN1CCC(C2c3ccccc3CCn3c2nc2ccccc23)CC1Cc1ccccc1 (centres unmarked) [Compound 50],IC50,[2],0.251 µM
Cc1nc2n(C)c3ccccc3n2c(=O)c1CCN1CCC(C2c3ccccc3CCn3c2nc2ccccc23)CC1Cc1ccccc1 (centres unmarked) [Compound 13],IC50,[2],0.316 µM
"CN1CCC[C@@H]1CCO[C@](C)(c1ccccc1)c1ccc(Cl)cc1 [Clemastine, reference compound]",Effect on ICP,[1],−
Cc1nc2n(C)c3ccccc3n2c(=O)c1CCN1CCC(C2c3ccccc3CCn3c2nc2ccccc23)CC1 (centres unmarked) [Compound 14],IC50,[2],0.0251 µM
"CC(CN(C)C)CN1c2ccccc2Sc2ccccc21 (centres unmarked) [Alimemazine, reference compound]",Effect on ICP,[1],−
Cc1nc2n(Cc3ccccn3)c3ccccc3n2c(=O)c1CCN1CCC(C2c3ccccc3CCn3c2nc2ccccc23)CC1Cc1ccccc1 (centres unmarked) [Compound 20],IC50,[2],0.398 µM
Cc1nc2ccccn2c(=O)c1CCN1CCC(C2c3ccccc3CCn3c2nc2ccccc23)CC1Cc1ccccc1 (centres unmarked) [Compound 81],IC50,[2],0.2 µM
"Cc1nc2ccccn2c(=O)c1CCN1CCC(C2c3ccccc3CCn3c2nc2ccccc23)C(C)C1 (single isomer, unassigned) [Compound 94]",IC50,[2],0.1 µM
CCOCCn1c2ccccc2n2c(=O)c(CCN3CCC(C4c5ccccc5CCn5c4nc4ccccc45)CC3Cc3ccccc3)c(C)nc12 (centres unmarked) [Compound 23],IC50,[2],0.2 µM
"Cc1nc2n(C)c3ccccc3n2c(=O)c1CCN1CCC(C2c3ccccc3CCn3c2nc2ccccc23)CC1Cc1ccccc1 (single isomer, unassigned) [Compound 57]",IC50,[2],0.398 µM
"CN1CCC(=C2c3ccccc3CC(=O)c3sccc32)CC1 [Ketotifen, reference compound]",Effect on blood pressure,[1],0
same,effect on the lowering of the blood pressure,[1],no or little effect
CCOC(=O)Cn1c2ccccc2n2c(=O)c(CCN3CCC(C4c5ccccc5CCn5c4nc4ccccc45)CC3Cc3ccccc3)c(C)nc12 (centres unmarked) [Compound 53],IC50,[2],0.316 µM
"O=c1[nH]c2ccccc2n1CCCN1CCN(C(c2ccccc2)c2ccccc2)CC1 [Oxatomide, reference compound]",Effect on ICP,[1],−
same,Effect on blood pressure,[1],−
Cc1nc2sccn2c(=O)c1CCN1CCC(C2c3ccccc3CCn3c2nc2ccccc23)C(C)C1 (centres unmarked) [Compound 87],IC50,[2],0.251 µM
Cc1nc2sccn2c(=O)c1CCN1CCC(C2(C)c3ccccc3CCn3c2nc2ccccc23)CC1 (centres unmarked) [Compound 110],IC50,[2],0.126 µM
Cc1nc2n(C)c3ccccc3n2c(=O)c1CCN1CCC(C2c3ccccc3CCn3c2nc2ccccc23)CC1Cc1ccccc1 (centres unmarked) [Compound 48],IC50,[2],0.316 µM
COCCOCCn1c2ccccc2n2c(=O)c(CCN3CCC(C4c5ccccc5CCn5c4nc4ccccc45)CC3Cc3ccccc3)c(C)nc12 (centres unmarked) [Compound 35],IC50,[2],0.794 µM
Cc1cncc(Cn2c3ccccc3n3c(=O)c(CCN4CCC(C5c6ccccc6CCn6c5nc5ccccc56)CC4Cc4ccccc4)c(C)nc23)n1 (centres unmarked) [Compound 27],IC50,[2],0.631 µM
"OC[C@@H](O)[C@@H](O)[C@H](O)[C@H](O)CO [Mannitol, mannitol, reference compound]",mean reduction of ICP,[1]; i.v. mannitol 3 g over 45 min,about 20%
same,effect of repeated infusion on ICP,"[1]; mannitol i.v. 0.125 g/kg/min, same time windows",lowering of ICP
same,Decision (sequential statistical evaluation),"[1]; mannitol infusion of 67 mg/kg/min for 45 min, 5 separate tests",active
same,Delta %: average change of the relative ICP from baseline over the treatment period,"[1]; mannitol infusion of 67 mg/kg/min for 45 min, 5 separate tests, listed as Mannitol^1, 67 mg/kg",−21.7%
same,Delta %: average change of the relative ICP from baseline over the treatment period,"[1]; mannitol infusion of 67 mg/kg/min for 45 min, 5 separate tests, listed as Mannitol^2, 67 mg/kg",−22.1%
same,Delta %: average change of the relative ICP from baseline over the treatment period,"[1]; mannitol infusion of 67 mg/kg/min for 45 min, 5 separate tests, listed as Mannitol^3, 67 mg/kg",−13.0%
same,Delta %: average change of the relative ICP from baseline over the treatment period,"[1]; mannitol infusion of 67 mg/kg/min for 45 min, 5 separate tests, listed as Mannitol^4, 67 mg/kg",−19.3%
same,Delta %: average change of the relative ICP from baseline over the treatment period,"[1]; mannitol infusion of 67 mg/kg/min for 45 min, 5 separate tests, listed as Mannitol^5, 67 mg/kg",−19.9%
"Cc1nc2n(C)c3ccccc3n2c(=O)c1CCN1CCC(C2c3ccccc3CCn3c2nc2ccccc23)CC1Cc1ccccc1 (single isomer, unassigned) [Compound 58]",IC50,[2],0.398 µM
"Clc1ccc(Cn2c(CN3CCCC3)nc3ccccc32)cc1 [Clemizole, reference compound]",Effect on ICP,[1],−
Cc1nc2sccn2c(=O)c1CCN1CCC(C)(C2c3ccccc3CCn3c2nc2ccccc23)CC1 (centres unmarked) [Compound 104],IC50,[2],0.1 µM

# Reference: US7732437B2, “Use of anti-histaminics for acute reduction of elevated intracranial pressure” (Janssen Pharmaceutica, NV., priority 2001, dated 2010)
